# ChEMBL document CHEMBL6087462, “Cuminaldehyde Potentiates Antiproteolytic Peptide Efficacy via Parallel Pathways of Enhanced Inner Membrane-Damaging Activity and Inhibition of Bacterial Energy Metabolism” (J Med Chem, 2025)
# Columns and labels:
# [1] = tested on: Escherichia coli; assay: Synergistic antimicrobial activity against Escherichia coli 078 assessed as fractional inhibitory concentration index in presence of thymol by checkerboard broth microdilution assay; format: functional, 78
# [2] = tested on: Escherichia coli; assay: Synergistic antimicrobial activity against Escherichia coli 25922 assessed as fractional inhibitory concentration index by checkerboard broth microdilution assay; format: functional
# [3] = tested on: Escherichia coli; assay: Synergistic antimicrobial activity against Escherichia coli K88 assessed as fractional inhibitory concentration index in presence of citronellal by checkerboard broth microdilution assay; format: functional
# [4] = tested on: Salmonella typhimurium; assay: Synergistic antimicrobial activity against Salmonella typhimurium ATCC 14028 assessed as fractional inhibitory concentration by checkerboard broth microdilution assay; format: functional, Salmonella enterica subsp. enterica serovar Typhimurium
# [5] = tested on: Escherichia coli; assay: Synergistic antimicrobial activity against Escherichia coli 078 assessed as fractional inhibitory concentration index in presence of perillaldehyde by checkerboard broth microdilution assay; format: functional, 78
# [6] = tested on: Escherichia coli; assay: Synergistic antimicrobial activity against Escherichia coli 078 assessed as fractional inhibitory concentration by checkerboard broth microdilution assay; format: functional
# [7] = tested on: Staphylococcus aureus; assay: Synergistic antimicrobial activity against Staphylococcus aureus 43300 assessed as fractional inhibitory concentration index in presence of citral by checkerboard broth microdilution assay; format: functional
# [8] = tested on: Staphylococcus aureus; assay: Antimicrobial activity against Staphylococcus aureus 43300 assessed as reduction in microbial growth by CLSI based broth microdilution method; format: functional
# [9] = tested on: Escherichia coli; assay: Synergistic antimicrobial activity against Escherichia coli K99 assessed as fractional inhibitory concentration index in presence of thymol by checkerboard broth microdilution assay; format: functional
# [10] = tested on: Escherichia coli; assay: Antimicrobial activity against Escherichia coli 078 assessed as reduction in microbial growth by CLSI based broth microdilution method; format: functional
# [11] = tested on: Staphylococcus epidermidis; assay: Antimicrobial activity against Staphylococcus epidermidis ATCC 12228 assessed as reduction in microbial growth by CLSI based broth microdilution method; format: functional
# [12] = tested on: Escherichia coli; assay: Synergistic antimicrobial activity against Escherichia coli UB1005 assessed as fractional inhibitory concentration index in presence of citral by checkerboard broth microdilution assay; format: functional
# [13] = tested on: Staphylococcus aureus; assay: Antimicrobial activity against Staphylococcus aureus ATCC 29213 assessed as reduction in microbial growth in presence of cuminaldehyde by CLSI based broth microdilution method; format: functional
# [14] = tested on: Salmonella typhimurium; assay: Antimicrobial activity against Salmonella typhimurium ATCC 7731 assessed as reduction in microbial growth in presence of cuminaldehyde by CLSI based broth microdilution method; format: functional, Salmonella enterica subsp. enterica serovar Typhimurium; conditions: Salmonella enterica
# [15] = tested on: Staphylococcus aureus; assay: Synergistic antimicrobial activity against Staphylococcus aureus ATCC 29213 assessed as fractional inhibitory concentration by checkerboard broth microdilution assay; format: functional
# [16] = tested on: Escherichia coli; assay: Synergistic antimicrobial activity against Escherichia coli K88 assessed as fractional inhibitory concentration index in presence of carvacrol by checkerboard broth microdilution assay; format: functional
# [17] = tested on: Salmonella typhimurium; assay: Synergistic antimicrobial activity against Salmonella typhimurium 14028 assessed as fractional inhibitory concentration index in presence of cuminaldehyde by checkerboard broth microdilution assay; format: functional, Salmonella enterica subsp. enterica serovar Typhimurium
# [18] = tested on: Escherichia coli; assay: Synergistic antimicrobial activity against Escherichia coli UB1005 assessed as fractional inhibitory concentration index in presence of perillaldehyde by checkerboard broth microdilution assay; format: functional
# [19] = tested on: Staphylococcus aureus; assay: Synergistic antimicrobial activity against Staphylococcus aureus 29213 assessed as fractional inhibitory concentration index in presence of citral by checkerboard broth microdilution assay; format: functional
# [20] = tested on: Enterococcus faecalis; assay: Synergistic antimicrobial activity against Enterococcus faecalis 29212 assessed as fractional inhibitory concentration index in presence of cuminaldehyde by checkerboard broth microdilution assay; format: functional
# [21] = tested on: Staphylococcus aureus; assay: Synergistic antimicrobial activity against Staphylococcus aureus 43300 assessed as fractional inhibitory concentration index in presence of citronellal by checkerboard broth microdilution assay; format: functional
# [22] = tested on: Salmonella typhimurium; assay: Antimicrobial activity against Salmonella typhimurium ATCC 7731 assessed as cuminaldehyde MIC by CLSI based broth microdilution method; format: functional, Salmonella enterica subsp. enterica serovar Typhimurium; conditions: Salmonella enterica
# [23] = Synergistic antimicrobial activity against Salmonella enterica subsp. enterica serovar Pullorum 7913 assessed as fractional inhibitory concentration index in presence of carvacrol by checkerboard broth microdilution assay; format: functional
# [24] = tested on: Enterococcus faecalis; assay: Synergistic antimicrobial activity against Enterococcus faecalis 29212 assessed as fractional inhibitory concentration index in presence of perillaldehyde by checkerboard broth microdilution assay; format: functional
# [25] = tested on: Enterococcus faecalis; assay: Synergistic antimicrobial activity against Enterococcus faecalis 29212 assessed as fractional inhibitory concentration index in presence of citral by checkerboard broth microdilution assay; format: functional
# [26] = tested on: Escherichia coli; assay: Synergistic antimicrobial activity against Escherichia coli 078 assessed as fractional inhibitory concentration index in presence of carvacrol by checkerboard broth microdilution assay; format: functional, 78
# [27] = tested on: Salmonella typhimurium; assay: Synergistic antimicrobial activity against Salmonella typhimurium 7731 assessed as fractional inhibitory concentration index in presence of thymol by checkerboard broth microdilution assay; format: functional, Salmonella enterica subsp. enterica serovar Typhimurium
# [28] = Synergistic antimicrobial activity against Salmonella enterica subsp. enterica serovar Pullorum 7913 assessed as fractional inhibitory concentration index in presence of thymol by checkerboard broth microdilution assay; format: functional
# [29] = Synergistic antimicrobial activity against Salmonella enterica subsp. enterica serovar Pullorum ATCC 7913 assessed as fractional inhibitory concentration by checkerboard broth microdilution assay; format: functional
# [30] = tested on: Escherichia coli; assay: Synergistic antimicrobial activity against Escherichia coli K88 assessed as fractional inhibitory concentration index in presence of citral by checkerboard broth microdilution assay; format: functional
# [31] = tested on: Staphylococcus aureus; assay: Synergistic antimicrobial activity against Staphylococcus aureus 25923 assessed as fractional inhibitory concentration index in presence of perillaldehyde by checkerboard broth microdilution assay; format: functional
# [32] = tested on: Salmonella typhimurium; assay: Antimicrobial activity against Salmonella typhimurium ATCC 14028 assessed as cuminaldehyde MIC by CLSI based broth microdilution method; format: functional, Salmonella enterica subsp. enterica serovar Typhimurium; conditions: Salmonella enterica
# [33] = tested on: Staphylococcus aureus; assay: Antimicrobial activity against Staphylococcus aureus ATCC 25923 assessed as reduction in microbial growth by CLSI based broth microdilution method; format: functional
# [34] = Synergistic antimicrobial activity against Salmonella enterica subsp. enterica serovar Pullorum 7913 assessed as fractional inhibitory concentration index in presence of cuminaldehyde by checkerboard broth microdilution assay; format: functional
# [35] = tested on: Salmonella typhimurium; assay: Synergistic antimicrobial activity against Salmonella typhimurium 14028 assessed as fractional inhibitory concentration index in presence of citral by checkerboard broth microdilution assay; format: functional, Salmonella enterica subsp. enterica serovar Typhimurium
# [36] = tested on: Staphylococcus aureus; assay: Antimicrobial activity against Staphylococcus aureus 43300 assessed as reduction in microbial growth in presence of cuminaldehyde by CLSI based broth microdilution method; format: functional
# [37] = Antimicrobial activity against Salmonella enterica subsp. enterica serovar Pullorum ATCC 7913 assessed as cuminaldehyde MIC by CLSI based broth microdilution method; format: functional
# [38] = tested on: Enterococcus faecalis; assay: Synergistic antimicrobial activity against Enterococcus faecalis ATCC 29212 assessed as fractional inhibitory concentration by checkerboard broth microdilution assay; format: functional
# [39] = tested on: Salmonella typhimurium; assay: Antimicrobial activity against Salmonella typhimurium ATCC 14028 assessed as reduction in microbial growth by CLSI based broth microdilution method; format: functional, Salmonella enterica subsp. enterica serovar Typhimurium; conditions: Salmonella enterica
# [40] = tested on: Staphylococcus aureus; assay: Synergistic antimicrobial activity against Staphylococcus aureus 43300 assessed as fractional inhibitory concentration index in presence of thymol by checkerboard broth microdilution assay; format: functional
# [41] = tested on: Escherichia coli; assay: Antimicrobial activity against Escherichia coli K88 assessed as reduction in microbial growth by CLSI based broth microdilution method; format: functional
# [42] = tested on: Staphylococcus aureus; assay: Synergistic antimicrobial activity against Staphylococcus aureus 29213 assessed as fractional inhibitory concentration index in presence of cuminaldehyde by checkerboard broth microdilution assay; format: functional
# [43] = tested on: Salmonella typhimurium; assay: Synergistic antimicrobial activity against Salmonella typhimurium 14028 assessed as fractional inhibitory concentration index in presence of citronellal by checkerboard broth microdilution assay; format: functional, Salmonella enterica subsp. enterica serovar Typhimurium
structure (smiles),measurement,setting,value
CC[C@H](C)[C@H](NC(=O)[C@@H](NC(=O)[C@@H](CCCNC(=N)N)NC(=O)[C@H](C)NC(=O)[C@H](C)NC(=O)[C@@H](N)Cc1cccc2ccccc12)[C@@H](C)CC)C(=O)N[C@@H](CC(C)C)C(=O)N[C@H](CCCNC(=N)N)C(=O)N[C@@H](Cc1c[nH]c2ccccc12)C(=O)N[C@H](CCCNC(=N)N)C(=O)N[C@@H](Cc1ccccc1)C(=O)N[C@@H](CCCNC(=N)N)C(=O)O,fractional inhibitory concentration index (FICI),[1],0.5
same,fractional inhibitory concentration index (FICI),[2],0.25
same,fractional inhibitory concentration index (FICI),[3],0.156
same,FIC,[4],0.25
same,fractional inhibitory concentration index (FICI),[5],0.188
same,FIC,[6],0.063
same,fractional inhibitory concentration index (FICI),[7],0.313
same,MIC,[8],8 µg/mL
same,fractional inhibitory concentration index (FICI),[9],0.5
same,MIC,[10],8 µg/mL
same,MIC,[11],4 µg/mL
same,fractional inhibitory concentration index (FICI),[12],0.257
same,MIC,[13],2 µg/mL
same,MIC,[14],0.5 µg/mL
same,FIC,[15],0.25
same,fractional inhibitory concentration index (FICI),[16],0.313
same,fractional inhibitory concentration index (FICI),[17],0.25
same,fractional inhibitory concentration index (FICI),[18],0.281
same,fractional inhibitory concentration index (FICI),[19],0.385
same,fractional inhibitory concentration index (FICI),[20],0.313
same,fractional inhibitory concentration index (FICI),[21],0.188
same,MIC,[22],1020 µg/mL
same,fractional inhibitory concentration index (FICI),[23],0.625
same,fractional inhibitory concentration index (FICI),[24],0.625
same,fractional inhibitory concentration index (FICI),[25],0.375
same,fractional inhibitory concentration index (FICI),[26],0.5
same,fractional inhibitory concentration index (FICI),[27],0.313
same,fractional inhibitory concentration index (FICI),[28],0.75
same,FIC,[29],0.125
same,fractional inhibitory concentration index (FICI),[30],0.188
same,fractional inhibitory concentration index (FICI),[31],0.625
same,MIC,[32],1020 µg/mL
same,MIC,[33],16 µg/mL
same,fractional inhibitory concentration index (FICI),[34],0.125
same,fractional inhibitory concentration index (FICI),[35],0.141
same,MIC,[36],4 µg/mL
same,MIC,[37],1020 µg/mL
same,FIC,[38],0.125
same,MIC,[39],4 µg/mL
same,fractional inhibitory concentration index (FICI),[40],0.75
same,MIC,[41],4 µg/mL
same,fractional inhibitory concentration index (FICI),[42],0.094
same,fractional inhibitory concentration index (FICI),[43],0.254
